{"source": "patent EP0605261B1", "about": "“Use of a flavone derivative as taste modifier and a method of modifying taste” (SAN-EI GEN F.F.I., INC., priority 1992, dated 1994)", "key": {"[1]": {"experiment": "Sensory test: savor (hard candy)", "type": "in vivo", "conditions": "hard candy with Aspartame; 0.0001 w/w%; 10 panellers", "method": "Compound 10 of the flavone derivative (I) was used as a taste modifier, and 22.5 w/w% thick malt syrup of reducing maltose, 22.5 w/w% reducing starch saccharide and 0.08 w/w% of Aspartame were used as sweetening agents. In accordance with a general method, hard candy containing 0.0001 w/w% of the flavone derivative (I) and flavone derivative (I) free hard candy were prepared. Sensory tests for the savor were conducted by 10 panellers comprised of 6 males and 4 females at the age from 20 to 40."}, "[2]": {"experiment": "Sensory test (limiting method): enhancing the sourness of acid sugar solution", "type": "in vivo", "parameters": "key: (equivalent citric acid content / citric acid content with flavone) × 100", "conditions": "citric acid 1.000 (g), flavone derivative (I) 0.00001 (g), 8 panellers", "method": "Compounds 1 to 11 of the flavone derivative (I) were used as a taste modifier to prepare acid sugar solution having compositions as follows:\nAs a control, 21 types of acid sugar solutions are used. In the control, the flavone derivative (I) is removed from the above composition and the content of citric acid is varied from 1.000 g to 1.500 g by 0.025 g.\nSensory tests were carried out by 8 trained panellers in accordance with a limiting method described in the Hand Book of Sensory evaluation, edited by Research Committee of sensory evaluation, Union of Japanese Scientists and Engineers, p.398 (1973) in use of acid sugar solutions containing respective flavone derivatives (I) and another acid sugar solutions having a various content of citric acid.\nAs for the content of citric acid, two types sensory tests were conducted, one was an ascending system (testing from solution with low concentration) and another was a descending system (testing from solution with high concentration).\nThe sensory evaluation was made by a value of enhancing the sourness. The value of enhancing the sourness was calculated by the following formula based on the content of citric acid in acid sugar solutions with varied concentration of citric acid, which has an equivalent stimulation with an acid sugar solution containing the flavone derivative (I) Value of enhancing the sourness = (content of citric acid in acid sugar solution sensed as an equivalent stimulation/content of citric acid in acid sugar solution containing the flavone derivative (I)) x 100 [formula]"}}}
{"smiles": "COc1ccc(-c2cc(=O)c3c(O)c(OC)c(OC)c(OC)c3o2)cc1OC", "note": "[Compound 10, 5-hydroxy-3',4',6,7,8-pentamethoxyflavone]", "values": [{"measurement": "the savor, as sensed by all the panellers", "setting": "[1]", "result": "better than that of the control"}, {"measurement": "Value of enhancing the sourness Ascending system", "setting": "[2]; ascending system (from low concentration)", "result": 120}, {"measurement": "Value of enhancing the sourness Descending system", "setting": "[2]; descending system (from high concentration)", "result": 123}]}
